Here are results for 2 molecules from patent US20230109839A1, “THERAPEUTIC AGENT FOR TAUOPATHIES” (SUMITOMO PHARMA CO., LTD., priority 2020, published 2023).

The target of this assay is T1, human Nav1.1 (Homo sapiens, UniProt P35498).
T1 construct: host or cells: HEK293
Nature of the assay: Amplification of Nav1.1-derived voltage-gated sodium current (Nav1.1 current), automated patch clamp (Test 1). The assay is classed as cell-based. As to conditions: HEK293, Concentration for evaluation 1 μM; HEK293 cell line stably expressing human Nav1.1; read-out: Nav1.1 current amplification rate (%). The method in brief:
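Compound-induced change in ramp-evoked sodium current peak and AUC was expressed as 100×post/pre ratio minus 100. Recordings used automated patch clamp in voltage-clamp mode on a stable human Nav1.1 HEK293 line, including only cells above 500 pA. Compounds were delivered in extracellular fluid containing 1% DMSO.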
A general note: Patch clamp records ionic current or voltage across a cell membrane.

Structures are written as SMILES.

Consider `CN(c1ncc2cnn(CC(=O)Nc3ccn4ncnc4c3)c2n1)C1CCCC1` [Example 795, 2-{6-[cyclopentyl(methyl)amino]-1H-pyrazolo[3,4-d]pyrimidin-1-yl}-N-([1,2,4]triazolo[1,5-a]pyridin-7-yl)acetamide], for which the activation at 1 µM came to 111%.
With `CC1CC=C(c2cnc3cnn(CC(=O)Nc4ccn5ncnc5c4)c3n2)CC1` (centres unmarked) [Example 577, 2-[6-(4-methylcyclohex-1-en-1-yl)-1H-pyrazolo[3,4-b]pyrazin-1-yl]-N-([1,2,4]triazolo[1,5-a]pyridin-7-yl)acetamide], the activation at 1 µM was found to be 249%.
